In patent US20220334127A1, “IN VITRO METHOD FOR OBTAINING CLINICAL DATA IN PATIENTS SUFFERING FROM AN INFLAMMATORY DISEASE” (FUNDACIÓN PARA LA FORMACIÓN E INVESTIGACIÓN SANITARIAS DE …, priority 2019, published 2022):

Assays:
[1] = tested on: HIF-1α; assay: HIF-1α staining in human monocytes by flow cytometry; type: cell-based; details: ATP 1 mM 30 min; for HIF-1α expression induced by ATP treatment: AZ11645373 10 μM or PDTC 10 μM (FIG. 7e); for HIF-1α expression by the agent itself: washed, cultured 2 h (FIG. 7e)
Description: Human peripheral blood mononuclear cells (PBMCs) were isolated from blood within one hour after extraction using Ficoll histopaque 1077 (Sigma-Aldrich). […] Cells were treated with ATP (Sigma-Aldrich), antimycin A (Sigma-Aldrich) or FCCP (Sigma-Aldrich) in the presence or absence of PDTC (Sigma-Aldrich) or echinomycin (Sigma-Aldrich) in E-total buffer (147 mM NaCl, 10 mM HEPES, 13 mM glucose, 2 mM CaCl2), 1 mM MgCl2, and 2 mM KCl) and then washed and stimulated with E. coli LPS O55:B5 in their respective complete media. […] After LPS treatment, cells were incubated with P2X7 modulating nanobodies, the specific P2X7 receptor antagonist A438079 or AZ11645373 (Tocris), and then subsequently stimulated with ATP or nigericin (Sigma-Aldrich) in E-total buffer. Times and concentrations for the reagents used are specified in the figure legends.
HIF-1α expression was detected in CD14^+ monocytes using Alexa Fluor-647 mouse anti-human HIF-1α (BD Biosciences, Clone 54) at 1:1000 dilution.

[2] = tested on: NLRP3 inflammasome; assay: IL-1β release from BMDMs pre-treated, washed, LPS-primed and stimulated with nigericin; type: cell-based, mouse; details: for IL-1β release after mitochondrial depolarizing agent: wild type or P2rx7−/− BMDMs, antimycin A 5 μM or FCCP 1 μM 30 min, then LPS 1 μg/ml 4 h, nigericin 10 μM 30 min (FIG. 6d)
Description: FIG. 6. P2X7 receptor stimulation induces an impairment of the NLRP3 inflammasome in monocytes. (a-b) Percentage of monocytes with ASC-specks (a) and release of […] from PBMCs (b) isolated from healthy donor blood samples treated with ATP (3 mM, 30 min; ATP-pre), then washed and primed with or without LPS (1 μg/ml, 2 h) and then treated for 20 min with ATP (3 mM; ATP-post) or nigericin (10 μM) as indicated. (c) IL-1β release from wild type or P2rx7^−/− BMDMs treated as in a, but with 4 h LPS priming and 30 min of ATP or nigericin. (d) IL-1β release from wild type or P2rx7^−/− BMDMs treated for 30 min with antimycin A (5 μM) or FCCP (1 μM) and then washed and primed with LPS (1 μg/ml, 4 h) and then stimulated with nigericin (10 μM, 30 min) as indicated. (e) Expression of Nrlp3 and Illb genes analyzed by quantitative PCR from wild type or P2rx7^−/− BMDMs treated with ATP (3 mM, 30 min; ATP-pre), then washed and primed with or without LPS (100 ng/ml, 4 h). (f) Kaplan-Meier representation of wild type (top) or P2rx7^−/− (bottom) mice survival after sham operation (dotted line), or CLP operation (continuous line); some mice groups were i.p. injected with ATP (0.5 mg/g) 30 min before operation (dashed lines). Wild type CLP n=10, CLP+ATP n=8, sham n=4, sham+ATP n=4; P2rx7^−/− CLP n=4, CLP+ATP n=6, sham n=3. (g) IL-1β from peritoneal lavage (left) or bacterial load in blood (right) from wild type sham, CLP or CLP+ATP mice after 24 h. Each dot represents a single independent experiment (c,d), a sample from an individual healthy donor (a,b,e) or a single mouse (g); average±standard error is represented in panels a-e,g; *p<0.05; **p<0.01; ns, no significant difference (p>0.05); Mann-Whitney test was used for a,b,d,e; Kruskal-Wallis test was used for c; Long-rank test for f.
(§1) FIG. 7. Mitochondrial dysfunction mediates P2X7 receptor induced NLRP3 inflammasome impairment. (a) Mitochondrial membrane depolarization in BMDMs treated with ATP (3 mM, 30 min), then washed out and incubated for the indicated times in the absence or presence of LPS (1 μg/ml) as indicated. […] (e) Representative histogram plot of HIF-1α staining (left) or quantification of HIF-1α mean intensity fluorescence increase (ΔMFI, right) in monocytes isolated from healthy donor blood samples and treated or not with ATP (1 mM, 30 min) in the presence or absence of AZ11645373 (10 μM) or PDTC (10 μM), and then washed and cultured for 2 h; non-stained monocytes (light grey, left). […] (g) Expression of HIF1A gene analyzed by quantitative PCR from control surgery group and septic patients PBMCs; septic patients are separated into NLRP3 non-immunocompromised (grey bar) and immunocompromised (black bar). […]

[3] = Cell death (LDH assay); type: cell-based
Description: Presence of LDH in cell-free supernatants was measured using the Cytotoxicity Detection kit (Roche) following the manufacturer's instructions.

[4] = tested on: NLRP3 inflammasome; assay: IL-1β release from PBMCs of healthy donors pre-treated with ATP, LPS-primed and stimulated with nigericin; type: cell-based; details: human PBMCs, ATP-pre 1 mM 30 min with PDTC 10 μM, LPS 1 μg/ml 4 h, nigericin 10 μM 30 min (FIG. 7d)
Description: as §1, with “indicated. (b) IL-1β release from wild-type BMDMs treated as in a, but after LPS priming cells were stimulated with nigericin (10 μM, 30 min). (c) Mitochondrial membrane depolarization in BMDMs treated with ATP (3 mM, 30 min) in the presence or absence pyrrolidine dithiocarbamate (PDTC, 40 μM).” for “indicated.”

[5] = tested on: BMDMs; assay: ATP-induced mitochondrial membrane depolarization in BMDMs with or without antioxidant; type: cell-based, mouse; details: ATP 3 mM 30 min, PDTC 40 μM (FIG. 7c)
Description: as §1, with “indicated. (b) IL-1β release from wild-type BMDMs treated as in a, but after LPS priming cells were stimulated with nigericin (10 μM, 30 min). (c) Mitochondrial membrane depolarization in BMDMs treated with ATP (3 mM, 30 min) in the presence or absence pyrrolidine dithiocarbamate (PDTC, 40 μM).” for “indicated.”

[6] = tested on: Nlrp3 and Illb; assay: Quantitative PCR of Nlrp3 and Il1b gene induction by LPS; type: cell-based, mouse
Description: FIG. 6. P2X7 receptor stimulation induces an impairment of the NLRP3 inflammasome in monocytes. (a-b) Percentage of monocytes with ASC-specks (a) and release of […] from PBMCs (b) isolated from healthy donor blood samples treated with ATP (3 mM, 30 min; ATP-pre), then washed and primed with or without LPS (1 μg/ml, 2 h) and then treated for 20 min with ATP (3 mM; ATP-post) or nigericin (10 μM) as indicated. (c) IL-1β release from wild type or P2rx7^−/− BMDMs treated as in a, but with 4 h LPS priming and 30 min of ATP or nigericin. (d) IL-1β release from wild type or P2rx7^−/− BMDMs treated for 30 min with antimycin A (5 μM) or FCCP (1 μM) and then washed and primed with LPS (1 μg/ml, 4 h) and then stimulated with nigericin (10 μM, 30 min) as indicated. (e) Expression of Nrlp3 and Illb genes analyzed by quantitative PCR from wild type or P2rx7^−/− BMDMs treated with ATP (3 mM, 30 min; ATP-pre), then washed and primed with or without LPS (100 ng/ml, 4 h). […]
Detailed methods used for qRT-PCR have been described in the prior art. Relative gene expression levels were calculated using the 2^−ΔCt method normalizing to Hprt1 expression as endogenous control.

Molecule | HIF-1α expression induced by ATP treatment [1] | IL-1β release after mitochondrial depolarizing agent [2] | HIF-1α expression by the agent itself [1] | cell death [3] | also measured
O=C1CSC(=O)N1C(CCc1ccncc1)COc1ccc(-c2cccc([N+](=O)[O-])c2)cc1 (stereo not drawn) [AZ116] | able to prevent it | – | – | – | –
N#CC(C#N)=NNc1ccc(OC(F)(F)F)cc1 [FCCP] | – | reduced | did not increase | did not induce cell death | –
S=C(S)N1CCCC1 [PDTC, pyrrolidine dithiocarbamate] | able to prevent it | – | – | – | production of IL-1β after ATP stimulation before LPS-priming and NLRP3 activation [4]: restored; ATP-induced mitochondrial membrane depolarization [5]: able to protect
CS[C@H]1SC[C@H]2C(=O)N(C)[C@@H](C(C)C)C(=O)OC[C@@H](NC(=O)c3cnc4ccccc4n3)C(=O)N[C@@H](C)C(=O)N(C)[C@@H]1C(=O)N(C)[C@@H](C(C)C)C(=O)OC[C@@H](NC(=O)c1cnc3ccccc3n1)C(=O)N[C@@H](C)C(=O)N2C [echinomycin] | – | – | – | – | production of IL-1β after ATP stimulation before LPS-priming and NLRP3 stimulation ([2]; BMDMs, ATP-pre 3 mM 30 min with echinomycin 5 nM, LPS 1 μg/ml 4 h, nigericin 10 μM 30 min (FIG. 7f)): restored
antimycin A | – | reduced | did not increase | did not induce cell death | Nlrp3 and Illb gene induction by LPS [6]: reduced
